Results as given in ChEMBL document CHEMBL5634121, “Discovery of novel G9a/GLP covalent inhibitors for the treatment of triple-negative breast cancer” (Eur J Med Chem, 2023).
Active and inactive are the calls of the source. No cut-off for these calls is given here.

Tests used:
[1] = system: MDA-MB-231; test: Induction of apoptosis in human MDA-MB-231 cells assessed as late apoptotic cells at 5 uM incubated for 72 hrs by Annexin V and PI staining based flow cytometry analysis (reference value: 0.45 %); type: functional
[2] = system: MDA-MB-231; test: Induction of apoptosis in human MDA-MB-231 cells assessed as early apoptotic cells at 5 uM incubated for 72 hrs by Annexin V and PI staining based flow cytometry analysis (reference value: 0.92 %); type: functional
[3] = molecular target: Histone-lysine N-methyltransferase EHMT1/EHMT2 (Homo sapiens) (UniProt Q9H9B1+Q96KQ7); test: Inhibition of G9a/GLP in human MDA-MB-231 cells assessed as reduction in H3K9 dimethylation at 20 uM incubated for 1 day followed by compound washout and measured after 1 to 4 days; type: cell-based
Chain of Histone-lysine N-methyltransferase EHMT1/EHMT2 (Homo sapiens) (Q96KQ7 whole entry, looked up, one chain of several): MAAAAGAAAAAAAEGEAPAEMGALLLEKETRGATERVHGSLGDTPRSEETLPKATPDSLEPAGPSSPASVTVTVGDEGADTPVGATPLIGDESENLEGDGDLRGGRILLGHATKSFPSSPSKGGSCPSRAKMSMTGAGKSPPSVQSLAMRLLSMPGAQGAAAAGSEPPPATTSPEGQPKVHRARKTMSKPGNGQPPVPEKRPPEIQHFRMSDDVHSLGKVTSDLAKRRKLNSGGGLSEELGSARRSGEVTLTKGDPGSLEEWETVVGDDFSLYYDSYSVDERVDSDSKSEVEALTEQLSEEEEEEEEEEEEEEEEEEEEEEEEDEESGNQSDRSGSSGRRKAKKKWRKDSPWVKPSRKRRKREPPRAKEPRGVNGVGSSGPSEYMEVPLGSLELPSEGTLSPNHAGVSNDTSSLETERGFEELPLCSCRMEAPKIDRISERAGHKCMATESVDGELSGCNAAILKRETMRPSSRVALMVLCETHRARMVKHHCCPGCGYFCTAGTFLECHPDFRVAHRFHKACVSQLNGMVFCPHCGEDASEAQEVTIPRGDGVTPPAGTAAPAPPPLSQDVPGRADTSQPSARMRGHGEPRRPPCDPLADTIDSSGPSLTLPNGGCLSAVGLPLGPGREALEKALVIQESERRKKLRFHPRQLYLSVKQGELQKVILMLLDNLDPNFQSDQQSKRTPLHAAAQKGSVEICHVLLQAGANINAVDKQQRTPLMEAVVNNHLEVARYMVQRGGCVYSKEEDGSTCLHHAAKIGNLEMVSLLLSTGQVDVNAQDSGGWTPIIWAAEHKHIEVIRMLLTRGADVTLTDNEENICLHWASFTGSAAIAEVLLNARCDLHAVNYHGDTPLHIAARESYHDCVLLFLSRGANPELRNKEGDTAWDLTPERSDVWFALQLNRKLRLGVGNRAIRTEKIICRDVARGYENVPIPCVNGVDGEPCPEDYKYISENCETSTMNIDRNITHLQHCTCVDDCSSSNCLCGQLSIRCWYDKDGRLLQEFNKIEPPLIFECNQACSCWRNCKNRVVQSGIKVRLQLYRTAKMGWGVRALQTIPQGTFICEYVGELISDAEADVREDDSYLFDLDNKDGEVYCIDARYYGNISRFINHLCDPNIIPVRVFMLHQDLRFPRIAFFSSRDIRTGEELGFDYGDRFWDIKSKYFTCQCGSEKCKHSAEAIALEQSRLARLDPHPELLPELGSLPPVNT

[4] = system: MDA-MB-231; test: Antiproliferative activity against human MDA-MB-231 cells at 1 to 5 nM by MTT assay; type: functional, cell-based; settings: dose 1-5 nM, time 3-5 day, TDE = time-dependent effect
[5] = system: MDA-MB-231; test: Induction of apoptosis in human MDA-MB-231 cells assessed as necrotic cells at 10 uM incubated for 72 hrs by Annexin V and PI staining based flow cytometry analysis (reference value: 0.32 %); type: functional
[6] = system: MDA-MB-231; test: Antiproliferative activity against human MDA-MB-231 cells incubated for 3 to 5 days by MTT assay; type: functional, cell-based; settings: time 3-5 day
[7] = system: MDA-MB-231; test: Induction of apoptosis in human MDA-MB-231 cells assessed as late apoptotic cells at 10 uM incubated for 72 hrs by Annexin V and PI staining based flow cytometry analysis (reference value: 0.45 %); type: functional
[8] = system: MDA-MB-231; test: Induction of apoptosis in human MDA-MB-231 cells assessed as viable cells at 10 uM incubated for 72 hrs by Annexin V and PI staining based flow cytometry analysis (reference value: 98.31 %); type: functional; settings: read-out: Activity
[9] = system: MDA-MB-231; test: Induction of cell cycle arrest in human MDA-MB-231 cells assessed as accumulation of cells at G2/M phase incubated for 72 hrs by PI/RNase staining based flow cytometric analysis; type: functional; settings: dose 5-20 µM
[10] = molecular target: T1, Histone-lysine N-methyltransferase EHMT1 (Homo sapiens) (UniProt Q9H9B1); test: Inhibition of GLP (unknown origin) at 1 uM
T1 sequence (whole entry): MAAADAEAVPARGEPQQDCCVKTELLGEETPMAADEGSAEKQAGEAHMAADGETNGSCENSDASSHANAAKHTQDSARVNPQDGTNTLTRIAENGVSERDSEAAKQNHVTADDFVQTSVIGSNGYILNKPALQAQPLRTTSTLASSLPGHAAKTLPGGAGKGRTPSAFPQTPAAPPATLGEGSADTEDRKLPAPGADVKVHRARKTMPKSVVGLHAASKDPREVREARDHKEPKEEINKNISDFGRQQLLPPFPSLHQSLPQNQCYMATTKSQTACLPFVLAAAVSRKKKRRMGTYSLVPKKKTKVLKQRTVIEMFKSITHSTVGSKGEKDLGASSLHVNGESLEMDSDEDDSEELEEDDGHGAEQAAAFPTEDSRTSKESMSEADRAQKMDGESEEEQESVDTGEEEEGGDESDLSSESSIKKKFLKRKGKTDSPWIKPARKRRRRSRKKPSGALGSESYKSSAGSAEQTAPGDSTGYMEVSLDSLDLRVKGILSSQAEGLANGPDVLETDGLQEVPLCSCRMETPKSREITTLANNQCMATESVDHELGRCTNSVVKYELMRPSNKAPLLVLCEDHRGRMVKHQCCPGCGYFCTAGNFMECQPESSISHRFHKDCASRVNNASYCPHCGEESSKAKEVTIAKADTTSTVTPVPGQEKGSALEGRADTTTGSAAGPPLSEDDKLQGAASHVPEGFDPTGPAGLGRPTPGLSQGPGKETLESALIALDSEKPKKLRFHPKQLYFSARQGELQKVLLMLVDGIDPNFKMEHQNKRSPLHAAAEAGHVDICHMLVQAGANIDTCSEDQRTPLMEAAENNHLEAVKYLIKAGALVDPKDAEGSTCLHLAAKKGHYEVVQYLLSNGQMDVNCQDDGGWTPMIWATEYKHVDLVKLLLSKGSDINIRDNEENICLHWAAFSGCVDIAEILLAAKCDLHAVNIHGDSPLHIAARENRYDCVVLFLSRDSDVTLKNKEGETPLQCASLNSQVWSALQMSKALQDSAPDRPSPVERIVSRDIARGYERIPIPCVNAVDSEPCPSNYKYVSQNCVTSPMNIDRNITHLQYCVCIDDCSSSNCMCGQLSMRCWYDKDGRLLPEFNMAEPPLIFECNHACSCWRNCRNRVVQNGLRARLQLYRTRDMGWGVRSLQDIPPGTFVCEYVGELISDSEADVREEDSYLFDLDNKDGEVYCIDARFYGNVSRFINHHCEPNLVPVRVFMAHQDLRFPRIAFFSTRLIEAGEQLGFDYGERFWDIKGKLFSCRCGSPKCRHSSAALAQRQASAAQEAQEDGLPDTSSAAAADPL

[11] = system: MDA-MB-231; test: Induction of apoptosis in human MDA-MB-231 cells assessed as viable cells at 5 uM incubated for 72 hrs by Annexin V and PI staining based flow cytometry analysis (reference value: 98.31 %); type: functional; settings: read-out: Activity
[12] = system: MDA-MB-231; test: Induction of apoptosis in human MDA-MB-231 cells assessed as viable cells at 20 uM incubated for 72 hrs by Annexin V and PI staining based flow cytometry analysis (reference value: 98.31 %); type: functional; settings: read-out: Activity
[13] = molecular target: T2, Histone-lysine N-methyltransferase EHMT1 (Homo sapiens, UniProt Q9H9B1); test: Inhibition of GLP (unknown origin)
T2 sequence (Q9H9B1 whole entry): T1 sequence (whole entry)

[14] = AUC(0 to infinity) in ICR mouse at 2 mg/kg, iv measured upto 12 hrs by LC-MS/MS analysis; type: ADME, organism-based; settings: in vivo
[15] = system: MDA-MB-231; test: Induction of apoptosis in human MDA-MB-231 cells assessed as early apoptotic cells at 20 uM incubated for 72 hrs by Annexin V and PI staining based flow cytometry analysis (reference value: 0.92 %); type: functional

inhibition [3]: Active
inhibition [10]: Active
IC50 [13]: 458 nM
AUC(0-inf) [14]: 1690 ng·h/mL
Structure (SMILES): C=CC(=O)Nc1cccc(-c2nc(NC3CCN(C)CC3)c3cc(OC)c(OC)cc3n2)c1
Activity [1]: 3.01%
Activity [2]: 1.44%
Activity [4]: Tde
Activity [5]: 1.28%
Activity [6]: Dose-Dependent Effect
Activity [7]: 5.89%
viability at 10 µM [8]: 89.1%
Activity [9]: Dose-Dependent Effect
viability at 5 µM [11]: 94.6%
viability at 20 µM [12]: 39.3%
Activity [15]: 21.6%
